The values that follow come from patent US20030113330A1, “Methods for treating pulmonary fibrosis” (priority 1999, published 2003).

Experiment [1] deals with T1, Caspase 1/ICE (Homo sapiens, UniProt P29466).
T1 construct: endogenous in cells; host or cells: A549 human lung epithelial cell line
T1 sequence (P29466 120-404): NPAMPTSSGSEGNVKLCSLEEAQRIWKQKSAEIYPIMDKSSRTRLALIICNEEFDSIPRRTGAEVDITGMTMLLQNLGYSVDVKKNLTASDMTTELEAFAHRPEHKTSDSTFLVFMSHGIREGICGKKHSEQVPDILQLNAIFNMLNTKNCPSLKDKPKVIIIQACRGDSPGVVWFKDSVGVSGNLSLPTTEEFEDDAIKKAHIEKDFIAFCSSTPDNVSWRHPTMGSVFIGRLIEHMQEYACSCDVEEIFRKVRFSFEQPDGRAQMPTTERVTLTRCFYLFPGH
The experiment is described as follows: Caspase 1/ICE activity in intact A549 cells (Ac-YVAD-AMC). The note with it: 50 ng/ml captopril. It is filed as cell-based. The method, then:
(§1) Caspase Assays. The enzymatic activities of Caspase 1/interleukin-1b-converting enzyme (ICE) and Caspase 3/CPP32/YAMA were determined in intact A549 cell cultures pre-incubated under conditions identical to those used for morphologic assays of apoptosis. After a 20 h incubation with antibodies and/or captopril, cells were trypsinized from the culture vessels and resuspended in serum-free culture medium containing anti-FAS antibodies and/or captopril at the same concentrations as during the preincubation. After one hour, fluorogenic peptide substrates specific to each enzyme were added separately to cuvettes containing cell suspension for measurement of total activity in intact cells. […] Production of fluorescent product over time was monitored in a spectrofluorometer at 380 nm excitation and 450 nm emission. […]
(§2) The same concentration of captopril also abrogated FAS-induced stimulation of Caspase 1 (ICE) (p<0.01 compared to control) and Caspase 3/CPP32/YAMA (p<0.01 compared to FASmAb treatment alone) activities. […] Cells were then analyzed in suspension culture for the activity of Caspase 1/ICE with peptide substrate Ac-YVAD-AMC or for activity of Caspase 3/CPP32/YAMA with peptide substrate Ac-DEVD-AMC as described above. […]

In experiment [2] the target is T2, Caspase 3/CPP32/YAMA (Homo sapiens, UniProt P42574).
T2 construct: endogenous in cells; host or cells: A549 human lung epithelial cell line
T2 sequence (P42574 29-277): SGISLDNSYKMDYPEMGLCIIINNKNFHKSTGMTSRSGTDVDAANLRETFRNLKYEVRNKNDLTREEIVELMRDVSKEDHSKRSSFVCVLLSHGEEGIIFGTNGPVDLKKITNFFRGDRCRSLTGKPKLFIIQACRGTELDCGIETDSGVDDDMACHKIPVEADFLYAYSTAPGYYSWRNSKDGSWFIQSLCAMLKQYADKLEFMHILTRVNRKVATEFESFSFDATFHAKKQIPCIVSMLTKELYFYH
Description: Caspase 3/CPP32/YAMA activity in intact A549 cells (Ac-DEVD-AMC). It is filed as cell-based. The note with it: 50 ng/ml captopril. The method, then:
as §1, §2

Experiment [3] relates to angiotensinogen (ANGEN) mRNA. Description: Quantitative RT-PCR of angiotensinogen mRNA in Fas-activated A549 cells. It is filed as cell-based, human. The note with it: A549, CH-11. As for the experimental part: RT-PCR. Reverse transcriptase polymerase chain reaction (RT-PCR) assay of angiotensinogen gene products was performed as described in Wang et al., Am. J. Physiol. 276:L885-L889 (1999) in a total reaction volume of 30 μl. Total RNA was isolated by the RNeasy Mini protocol (Qiagen Co., Santa Clarita, Calif.). The reaction was performed for 1 hour at 45 C. followed by 20 cycles of PCR amplification. PCR amplification was performed with 10 ul aliquots of cDNA, equivalent to 1 ug of the starting RNA. The identity of expressed genes was determined by expected size of the PCR product in 1.6% agarose gels.
For RT-PCR from the human A549 cells, the following primers were used: for angiotensinogen, “outer” primer of a two-step nested assay, coding=5′ GCTTTC-[…] 3′ [SEQ. ID NO. ______], and noncoding=5′ […] 3′ [SEQ. ID. NO. ______]; for the “inner” primer of the nested assay, coding=5′ […] 3′ [SEQ. ID NO. ______], and noncoding=5′ […] 3′ [SEQ. ID NO. ______]. These primers yield a final PCR product of 447 bp (8). […]
To confirm this, total RNA was isolated from human A549 cells or primary rat AEC that were unactivated (CTL) or activated with Fas-ligating CH-11 antibody or purified Fas ligand in the presence or absence of saralasin (SAR). Quantitative RT-PCR was performed with primers specific for human or rat angiotensinogen (ANGEN), β-actin or β-microglobulin (b-MG). […]

Entries after “also recorded” stand apart in the source; their conditions may differ.

For `C[C@H](CS)C(=O)N1CCC[C@H]1C(=O)O` [captopril], in experiment [1], the “effect on FAS-inducible Caspase 1 activity” value is given as “completely abrogated”. Also, the “effect on FAS-inducible Caspase 3 activity” value in experiment [2] was “significantly decreased; also recorded: abrogated”.

Turning to `CNCC(=O)N[C@@H](CCCN=C(N)N)C(=O)N[C@H](C(=O)N[C@@H](Cc1ccc(O)cc1)C(=O)N[C@H](C(=O)N[C@@H](Cc1cnc[nH]1)C(=O)N1CCC[C@H]1C(=O)N[C@@H](C)C(=O)O)C(C)C)C(C)C` [saralasin], the “effect on accumulation of ANGEN mRNA during Fas activation” value in experiment [3] was “had no effect”.
